Laboratory results reported in patent US9695155B2, “Herbicidal substituted pyrimidinyloxy benzene compounds” (E. I. DU PONT DE NEMOURS AND COMPANY, priority 2013, dated 2017).

Tests used:
[1] = system: barnyardgrass; test: Test C preemergence; assay type: in vivo, Echinochloa crus-galli; details: Echinochloa crus-galli, pre-emergence
How it was run: (§1)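 Seeds were sown in loam–sand blend and sprayed preemergence, while plants at 1- to 4-leaf stage (2–18 cm) in peat-based medium received postemergence sprays; test chemicals were formulated in a non-phytotoxic solvent with surfactant. After 13–15 days in a greenhouse, injury was rated visually against controls, 0 (no effect) to 100 (complete control).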

[2] = system: large (Lg) crabgrass; test: Test C postemergence; assay type: in vivo, Digitaria sanguinalis; details: Digitaria sanguinalis, post-emergence
How it was run: as §1

[3] = system: barnyardgrass; test: Test A postemergence; assay type: in vivo, Echinochloa crus-galli; details: Echinochloa crus-galli, post-emergence, 240 h
How it was run: (§2)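 Injury scores run from 0, no effect, to 100, complete control, judged by eye against untreated plants roughly 10 days after treatment. Chemicals carried a surfactant in a non-phytotoxic solvent and went onto loam–sand soil preemergence or onto one- to two-leaf seedlings postemergence.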

[4] = system: pigweed; test: Test A postemergence; assay type: in vivo, Amaranthus retroflexus; details: Amaranthus retroflexus, post-emergence
How it was run: as §2

[5] = system: pigweed; test: Test A preemergence; assay type: in vivo, Amaranthus retroflexus; details: Amaranthus retroflexus, pre-emergence
How it was run: as §2

[6] = system: blackgrass; test: Test C postemergence; assay type: in vivo, Alopecurus myosuroides; details: Alopecurus myosuroides, post-emergence
How it was run: as §1

[7] = system: barnyardgrass; test: Test B flooded paddy test; assay type: in vivo, Echinochloa crus-galli; details: Echinochloa crus-galli; Flood, 250 g ai/ha; 0 to 100 scale where 0 is no effect and 100 is complete control; read-out: Plant response rating, Barnyardgrass
How it was run: (§3)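 Plants at 2-leaf stage; pots flooded to 3 cm above soil and compound applied directly into paddy water, depth held throughout. After 13 to 15 days in greenhouse, visual rating versus controls on 0 (no effect) to 100 (complete control) scale.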

[8] = system: morningglory; test: Test A preemergence; assay type: in vivo, Ipomoea spp.
How it was run: as §2

[9] = system: waterhemp; test: Test C preemergence; assay type: in vivo, Amaranthus rudis; details: Amaranthus tuberculatus, pre-emergence
How it was run: as §1

[10] = system: rice; test: Test B flooded paddy test; assay type: in vivo, Oryza sativa; details: Oryza sativa; Flood, 250 g ai/ha; 0 to 100 scale where 0 is no effect and 100 is complete control; read-out: Plant response rating, Rice
How it was run: as §3

[11] = system: wheat, winter; test: Test C preemergence; assay type: in vivo, Triticum aestivum; details: Triticum aestivum, pre-emergence
How it was run: as §1

[12] = system: morningglory; test: Test C preemergence; assay type: in vivo, Ipomoea coccinea; details: Ipomoea, pre-emergence
How it was run: as §1

[13] = system: ragweed; test: Test C postemergence; assay type: in vivo, Ambrosia elatior; details: Ambrosia artemisiifolia, post-emergence
How it was run: as §1

[14] = system: velvetleaf; test: Test A postemergence; assay type: in vivo, Abutilon theophrasti; details: Abutilon theophrasti, post-emergence, 240 h
How it was run: as §2

[15] = system: soybean; test: Test C preemergence; assay type: in vivo, Glycine max; details: Glycine max, pre-emergence
How it was run: as §1

[16] = 125 g ai/ha, 0 to 100 scale where 0 is no effect and 100 is complete control, read-out: Plant response rating, Pigweed

Compound `N#Cc1cccc(Oc2ncc(Br)cn2)c1-n1cc(C(F)(F)F)cn1` [Compound 59, 3-[(5-bromo-2-pyrimidinyl)oxy]-2-[4-(trifluoromethyl)-1H-pyrazol-1-yl]benzonitrile] has a pest or weed control at 62 g/ha ([1]; 62 g ai/ha, preemergence, scale 0 (no effect) to 100 (complete control), read-out: Barnyardgrass plant response rating) of 100%, a pest or weed control at 125 g/ha ([1]; 125 g ai/ha, preemergence, scale 0 (no effect) to 100 (complete control), read-out: Barnyardgrass plant response rating) of 100% and a pest or weed control at 250 g/ha ([1]; 250 g ai/ha, preemergence, scale 0 (no effect) to 100 (complete control), read-out: Barnyardgrass plant response rating) of 100%. For the same compound, the pest or weed control at 31 g/ha ([1]; Preemergence, 31 g ai/ha, scale 0 to 100, 0 no effect, 100 complete control, read-out: Plant response rating, Barnyardgrass) was 80%, the pest or weed control at 125 g/ha ([2]; 125 g ai/ha, postemergence, read-out: Plant response rating (0 to 100), Crabgrass, Large) was 30% and the pest or weed control at 250 g/ha ([2]; 250 g ai/ha, postemergence, read-out: Plant response rating (0 to 100), Crabgrass, Large) was 40%. It also gave a pest or weed control at 31 g/ha ([2]; Postemergence, 31 g ai/ha, scale 0 to 100 (0 no effect, 100 complete control), 13 to 15 days, read-out: Plant response rating, Crabgrass, Large) of 10%, a pest or weed control at 62 g/ha ([2]; Postemergence, 62 g ai/ha, scale 0 to 100 (0 no effect, 100 complete control), read-out: Plant response rating, Crabgrass, Large) of 10% and a pest or weed control at 125 g/ha ([3]; 125 g ai/ha, 0 to 100 scale where 0 is no effect and 100 is complete control, read-out: Plant response rating, Barnyardgrass) of 100%. The pest or weed control at 500 g/ha ([3]; 500 g ai/ha, 0 to 100 scale, 0 no effect, 100 complete control, read-out: Plant response rating Barnyardgrass) was 100%, the pest or weed control at 125 g/ha [4, 16] was 100% and the pest or weed control at 500 g/ha ([4]; 240 h, 500 g ai/ha, 0 to 100 scale, 0 no effect, 100 complete control, read-out: Plant response rating Pigweed) was 100%. It also gave a pest or weed control at 125 g/ha [5, 16] of 100%, a pest or weed control at 500 g/ha ([5]; 240 h, 500 g ai/ha, 0 to 100 scale, 0 no effect, 100 complete control, approx. 10 days, read-out: Pigweed plant response rating) of 100% and a pest or weed control at 125 g/ha ([6]; 125 g ai/ha, postemergence, read-out: Plant response rating (0 to 100), Blackgrass) of 25%. The pest or weed control at 250 g/ha ([6]; 250 g ai/ha, postemergence, read-out: Plant response rating (0 to 100), Blackgrass) was 40%, the pest or weed control at 31 g/ha ([6]; Postemergence, 31 g ai/ha, scale 0 to 100 (0 no effect, 100 complete control), 13 to 15 days, read-out: Plant response rating, Blackgrass) was 5% and the pest or weed control at 62 g/ha ([6]; Postemergence, 62 g ai/ha, scale 0 to 100 (0 no effect, 100 complete control), read-out: Plant response rating, Blackgrass) was 10%. For the same compound, the pest or weed control at 250 g/ha [7] was 40%, the “Plant response rating, Morningglory” value ([8]; 125 g ai/ha, 0 to 100 scale where 0 is no effect and 100 is complete control) was 80 and the pest or weed control at 500 g/ha ([8]; Ipomoea, pre-emergence, 240 h, 500 g ai/ha, 0 to 100 scale, 0 no effect, 100 complete control, approx. 10 days, read-out: Morningglory plant response rating) was 100%. It also gave a pest or weed control at 62 g/ha ([9]; 62 g ai/ha, preemergence, scale 0 (no effect) to 100 (complete control), read-out: Waterhemp plant response rating) of 100%, a pest or weed control at 125 g/ha ([9]; 125 g ai/ha, preemergence, scale 0 (no effect) to 100 (complete control), read-out: Waterhemp plant response rating) of 100% and a pest or weed control at 250 g/ha ([9]; 250 g ai/ha, preemergence, scale 0 (no effect) to 100 (complete control), read-out: Waterhemp plant response rating) of 100%. It also gave a pest or weed control at 31 g/ha ([9]; Preemergence, 31 g ai/ha, scale 0 to 100, 0 no effect, 100 complete control, read-out: Plant response rating, Waterhemp) of 100%, a plant injury at 250 g/ha [10] of 20% and a plant injury at 62 g/ha ([11]; 62 g ai/ha, preemergence, scale 0 (no effect) to 100 (complete control), read-out: Wheat plant response rating) of 50%. It also gave a plant injury at 125 g/ha ([11]; 125 g ai/ha, preemergence, scale 0 (no effect) to 100 (complete control), read-out: Wheat plant response rating) of 85%, a plant injury at 250 g/ha ([11]; 250 g ai/ha, preemergence, scale 0 (no effect) to 100 (complete control), read-out: Wheat plant response rating) of 90% and a plant injury at 31 g/ha ([11]; Preemergence, 31 g ai/ha, scale 0 to 100, 0 no effect, 100 complete control, read-out: Plant response rating, Wheat) of 0%. It also gave a pest or weed control at 62 g/ha ([12]; 62 g ai/ha, preemergence, scale 0 (no effect) to 100 (complete control), read-out: Morningglory plant response rating) of 100%, a pest or weed control at 125 g/ha ([12]; 125 g ai/ha, preemergence, scale 0 (no effect) to 100 (complete control), read-out: Morningglory plant response rating) of 100% and a pest or weed control at 250 g/ha ([12]; 250 g ai/ha, preemergence, scale 0 (no effect) to 100 (complete control), read-out: Morningglory plant response rating) of 100%. The pest or weed control at 31 g/ha ([12]; Preemergence, 31 g ai/ha, scale 0 to 100, 0 no effect, 100 complete control, read-out: Plant response rating, Morningglory) was 95%, the pest or weed control at 125 g/ha ([13]; 125 g ai/ha, postemergence, read-out: Plant response rating (0 to 100), Ragweed) was 25% and the pest or weed control at 250 g/ha ([13]; 250 g ai/ha, postemergence, read-out: Plant response rating (0 to 100), Ragweed) was 55%. It also gave a pest or weed control at 31 g/ha ([13]; Postemergence, 31 g ai/ha, scale 0 to 100 (0 no effect, 100 complete control), 13 to 15 days, read-out: Plant response rating, Ragweed) of 10%, a pest or weed control at 62 g/ha ([13]; Postemergence, 62 g ai/ha, scale 0 to 100 (0 no effect, 100 complete control), read-out: Plant response rating, Ragweed) of 25% and a pest or weed control at 125 g/ha ([14]; 125 g ai/ha, 0 to 100 scale where 0 is no effect and 100 is complete control, read-out: Plant response rating, Velvetleaf) of 100%. It also gave a pest or weed control at 500 g/ha ([14]; 500 g ai/ha, 0 to 100 scale, 0 no effect, 100 complete control, read-out: Plant response rating Velvetleaf) of 100%, a plant injury at 62 g/ha ([15]; 62 g ai/ha, preemergence, scale 0 (no effect) to 100 (complete control), read-out: Soybean plant response rating) of 90% and a plant injury at 125 g/ha ([15]; 125 g ai/ha, preemergence, scale 0 (no effect) to 100 (complete control), read-out: Soybean plant response rating) of 90%. It also gave a plant injury at 250 g/ha ([15]; 250 g ai/ha, preemergence, scale 0 (no effect) to 100 (complete control), read-out: Soybean plant response rating) of 95% and a plant injury at 31 g/ha ([15]; Preemergence, 31 g ai/ha, scale 0 to 100, 0 no effect, 100 complete control, read-out: Plant response rating, Soybean) of 85%.
